From patent US20050234046A1 (Kalypsys, Inc., priority 2004, published 2005)

How the values were obtained:
Assay in all cases: Transient transfection (transactivation) assay in CV-1 cells, GAL4-PPAR chimera, luciferase reporter
Assay type in all cases: cell-based
PPAR gamma = target: T1, PPAR gamma (Homo sapiens, UniProt P37231)
T1 construct: expressed in transfected cells; host or cells: CV-1 cells
T1 sequence (P37231 238-503 limits assumed): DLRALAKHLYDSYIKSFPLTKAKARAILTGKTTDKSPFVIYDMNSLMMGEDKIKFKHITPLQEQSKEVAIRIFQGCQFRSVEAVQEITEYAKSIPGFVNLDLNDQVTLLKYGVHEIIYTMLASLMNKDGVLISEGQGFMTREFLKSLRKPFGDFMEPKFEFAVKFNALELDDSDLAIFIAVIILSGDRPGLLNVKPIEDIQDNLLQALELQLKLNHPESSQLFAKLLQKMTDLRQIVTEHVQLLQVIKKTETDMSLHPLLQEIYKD

PPAR delta = target: T2, PPAR delta (Homo sapiens, UniProt Q03181)
T2 construct: expressed in transfected cells; host or cells: CV-1 cells
T2 sequence (Q03181 211-439 limits assumed): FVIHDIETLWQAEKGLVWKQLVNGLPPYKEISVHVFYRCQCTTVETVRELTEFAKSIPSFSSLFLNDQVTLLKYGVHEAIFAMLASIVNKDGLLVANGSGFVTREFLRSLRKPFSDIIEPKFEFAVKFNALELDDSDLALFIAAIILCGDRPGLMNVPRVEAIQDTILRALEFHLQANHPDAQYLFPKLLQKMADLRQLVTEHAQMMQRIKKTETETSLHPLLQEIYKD

PPAR alpha = target: T3, PPAR alpha (Homo sapiens, UniProt Q07869)
T3 construct: expressed in transfected cells; host or cells: CV-1 cells
T3 sequence (Q07869 239-466 limits assumed): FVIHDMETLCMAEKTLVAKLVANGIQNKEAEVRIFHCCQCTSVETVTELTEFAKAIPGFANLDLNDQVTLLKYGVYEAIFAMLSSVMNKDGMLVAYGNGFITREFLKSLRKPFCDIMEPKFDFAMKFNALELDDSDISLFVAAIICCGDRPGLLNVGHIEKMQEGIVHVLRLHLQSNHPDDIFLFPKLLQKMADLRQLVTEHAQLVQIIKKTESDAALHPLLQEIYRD
How it was run: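 EC50 and efficacy come from a luciferase read-out after 20-24 hours of compound exposure (vehicle 1% DMSO) in transiently transfected CV-1 cells. These cells express a GAL4-PPAR ligand-binding-domain chimera plus a reporter with four or five GAL4 binding sites, and are kept in phenol-red free DME with 5% delipidated calf serum.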

Row | EC50 (PPAR gamma) | EC50 (PPAR delta) | EC50 (PPAR alpha) | Compound
1 | 5 to 100 µM | < 5 µM | > 100 µM | COc1ccc(CC(=O)O)cc1S(=O)(=O)N1CCN(c2ccc(C(F)(F)F)cn2)CC1 [Example 80]
2 | 5 to 100 µM | 5 to 100 µM | > 100 µM | COc1ccc(CC(=O)O)cc1S(=O)(=O)N1CCN(c2ccc(C(F)(F)F)cn2)CC1C (stereo not drawn) [Example 81, {4-Methoxy-3-[2-methyl-4-(5-trifluoromethyl-pyridin-2-yl)-piperazine-1-sulfonyl]-phenyl}-acetic acid]
3 | > 100 µM | 5 to 100 µM | > 100 µM | COc1ccc(CC(=O)O)cc1S(=O)(=O)N1[C@H](C)CN(c2ccc(C(F)(F)F)cn2)C[C@@H]1C [Example 82, {3-[2,6-Dimethyl-4-(5-trifluoromethyl-pyridin-2-yl)-piperazine-1-sulfonyl]-4-methoxy-phenyl}-acetic acid]
4 | > 100 µM | < 5 µM | > 100 µM | Cc1ccc(S(=O)(=O)N2[C@H](C)CN(c3ccc(Cl)c(Cl)c3)C[C@@H]2C)cc1CC(=O)O [Example 83, {5-[4-(3,4-Dichloro-phenyl)-2,6-dimethyl-piperazine-1-sulfonyl]-2-methyl-phenyl}-acetic acid]
5 | > 100 µM | > 100 µM | > 100 µM | CN(C)Cc1cc(CC(=O)O)cc(S(=O)(=O)N2CCN(c3ccc(C(F)(F)F)cc3)CC2)c1 [Example 84, {3-Dimethylaminomethyl-5-[4-(4-trifluorometbyl-phenyl)-piperazine-1-sulfonyl]-phenyl}-acetic acid]
6 | > 100 µM | 5 to 100 µM | > 100 µM | COCc1cc(CC(=O)O)cc(S(=O)(=O)N2CCN(c3ccc(C(F)(F)F)cc3)CC2)c1 [Example 85, {3-Methoxymethyl-5-[4-(4-trifluoromethyl-phenyl)-piperazine-1-sulfonyl]-phenyl}-acetic acid]
7 | > 100 µM | > 100 µM | > 100 µM | Cc1ccc(S(=O)(=O)N2CCN(c3cnc(Cl)cn3)CC2)cc1CC(=O)O [Example 86]
8 | 5 to 100 µM | < 5 µM | < 5 µM | Cc1ccc(S(=O)(=O)N2CCN(c3ccc(OC(F)(F)F)cc3)CC2)cc1CC(=O)O [Example 87, {2-Methyl-5-[4-(4-trifluoromethoxy-phenyl)-piperazine-1-sulfonyl]-phenyl}-acetic acid]
9 | > 100 µM | > 100 µM | > 100 µM | CCNCc1cc(CC(=O)O)cc(S(=O)(=O)N2CCN(c3ccc(C(F)(F)F)cc3)CC2)c1 [Example 88, {3-Ethylaminomethyl-5-[4-(4-trifluoromethyl-phenyl)-piperazine-1-sulfonyl]-phenyl}-acetic acid]
10 | > 100 µM | > 100 µM | > 100 µM | COCCNCc1cc(CC(=O)O)cc(S(=O)(=O)N2CCN(c3ccc(C(F)(F)F)cc3)CC2)c1 [Example 89, {3-[(2-Methoxy-ethylamino)-methyl]-5-[4-(4-trifluoromethyl-phenyl)-piperazine-1-sulfonyl]-phenyl}-acetic acid]
11 | 5 to 100 µM | < 5 µM | < 5 µM | Cc1ccc(S(=O)(=O)N2CCN(c3ccc(C(F)(F)F)c(F)c3)[C@@H](C)C2)cc1CC(=O)O [Example 90, {5-[4-(3-Fluoro-4-trifluoromethyl-phenyl)-3-(S)-methyl-piperazine-1-sulfonyl]-2-methyl-phenyl}-acetic acid]
12 | > 100 µM | > 100 µM | > 100 µM | O=C(O)Cc1cc(COCCO)cc(S(=O)(=O)N2CCN(c3ccc(C(F)(F)F)cc3)CC2)c1 [Example 91, {3-(2-Hydroxy-ethoxymethyl)-5-[4-(4-trifluoromethyl-phenyl)-piperazine-1-sulfonyl]-phenyl}-acetic acid]
13 | > 100 µM | < 5 µM | < 5 µM | O=C(O)Cc1cccc(S(=O)(=O)N2CCN(c3ccc(OC(F)(F)F)cc3)CC2)c1 [Example 92, {3-[4-(4-Trifluoromethoxy-phenyl)-piperazine-1-sulfonyl]-phenyl}-acetic acid]
14 | 5 to 100 µM | < 5 µM | < 5 µM | Cc1ccc(S(=O)(=O)N2CCN(c3ccc(C(F)(F)F)c(Cl)c3)CC2)cc1CC(=O)O [Example 93, {5-[4-(3-Chloro-4-trifluorometbyl-phenyl)-piperazine-1-sulfonyl]-2-methyl-phenyl}-acetic acid]
15 | < 5 µM | < 5 µM | 5 to 100 µM | CCC1CN(S(=O)(=O)c2ccc(C)c(CC(=O)O)c2)CCN1c1ccc(C(F)(F)F)cn1 (stereo not drawn) [Example 94, {5-[3-Ethyl-4-(5-trifluoromethyl-pyridin-2-yl)-piperazine-1-sulfonyl]-2-methyl-phenyl}-acetic acid]
16 | > 100 µM | < 5 µM | > 100 µM | Cc1ccc(S(=O)(=O)N2CCN(c3ccc(C(F)(F)F)nc3)CC2)cc1CC(=O)O [Example 95, {2-Methyl-5-[4-(6-trifluoromethyl-pyridin-3-yl)-piperazine-1-sulfonyl]-phenyl}-acetic acid]
17 | > 100 µM | < 5 µM | < 5 µM | O=C(O)Cc1cccc(S(=O)(=O)N2CCN(c3ccc(C(F)(F)F)cc3Br)CC2)c1 [Example 96]
18 | > 100 µM | < 5 µM | < 5 µM | Cc1ccc(S(=O)(=O)N2CCN(c3ccc(C(F)(F)F)cc3Br)CC2)cc1CC(=O)O [Example 97, {5-[4-(2-Bromo-4-trifluoromethyl-phenyl)-piperazine-1-sulfonyl]-2-methyl-phenyl-}acetic acid]
19 | > 100 µM | < 5 µM | < 5 µM | CCC1CN(c2ccc(C(F)(F)F)c(Cl)c2)CCN1S(=O)(=O)c1ccc(C)c(CC(=O)O)c1 (stereo not drawn) [Example 98, {5-[2-Ethyl-4-(3-chloro-4-trifluoromethyl-phenyl)-piperazine-1-sulfonyl]-2-methyl-phenyl}-acetic acid]
20 | 5 to 100 µM | < 5 µM | < 5 µM | Cc1ccc(S(=O)(=O)N2CCN(c3ccc(OC(F)(F)F)cc3)[C@@H](C)C2)cc1CC(=O)O [Example 99]
21 | 5 to 100 µM | < 5 µM | 5 to 100 µM | Cc1ccc(S(=O)(=O)N2[C@H](C)CN(c3ccc(OC(F)(F)F)cc3)C[C@@H]2C)cc1CC(=O)O [Example 100, {5-[2,6-Dimethyl-4-(4-trifluoromethoxy-phenyl)-piperazine-1-sulfonyl]-2-methyl-phenyl}-acetic acid]
22 | 5 to 100 µM | < 5 µM | 5 to 100 µM | Cc1ccc(S(=O)(=O)N2CCN(c3ccc(Cl)c(Cl)c3)C[C@@H]2C)cc1CC(=O)O [Example 101, {5-[4-(3,4-Dichloro-phenyl)-2-(S)-methyl-piperazine-1-sulfonyl]-2-methyl-phenyl}-acetic acid]
23 | 5 to 100 µM | < 5 µM | 5 to 100 µM | Cc1ccc(S(=O)(=O)N2CCN(c3ccc(Cl)c(Cl)c3)[C@@H](C)C2)cc1CC(=O)O [Example 102, {5-[4-(3,4-Dichloro-phenyl)-3-(S)-methyl-piperazine-1-sulfonyl]-2-methyl-phenyl}-acetic acid]
24 | 5 to 100 µM | < 5 µM | 5 to 100 µM | Cc1ccc(S(=O)(=O)N2[C@@H](C)CN(c3ccc(C(F)(F)F)cn3)C[C@@H]2C)cc1CC(=O)O [Example 103, {5-[2,6-(S,S)-Dimethyl-4-(5-trifluoromethyl-pyridin-2-yl)-piperazine-1-sulfonyl]-2-methyl-phenyl}-acetic acid]
25 | > 100 µM | < 5 µM | > 100 µM | Cc1ccc(S(=O)(=O)N2[C@H](C)CN(c3ccc(C(F)(F)F)c(Cl)c3)C[C@@H]2C)cc1CC(=O)O [Example 107, {5-[4-(3-Chloro-4-trifluoromethyl-phenyl)-2,6-dimethyl-piperazine-1-sulfonyl]-2-methyl-phenyl}-acetic acid]
26 | 5 to 100 µM | < 5 µM | 5 to 100 µM | Cc1ccc(S(=O)(=O)N2C[C@H](C)N(c3ccc(C(F)(F)F)cn3)[C@@H](C)C2)cc1CC(=O)O [Example 108, {5-[3,5-(S,S)-Dimethyl-4-(5-trifluoromethyl-pyridin-2-yl)-piperazine-1-sulfonyl]-2-methyl-phenyl}-acetic acid]
27 | > 100 µM | < 5 µM | 5 to 100 µM | C[C@@H]1CN(c2ccc(OC(F)(F)F)cc2)C[C@H](C)N1S(=O)(=O)c1cccc(CC(=O)O)c1 [Example 109, {3-[2,6-Dimethyl-4-(4-trifluoromethoxy-phenyl)-piperazine-1-sulfonyl]-phenyl}-acetic acid]
28 | 5 to 100 µM | < 5 µM | 5 to 100 µM | Cc1cc(CC(=O)O)cc(S(=O)(=O)N2[C@H](C)CN(c3ccc(OC(F)(F)F)cc3)C[C@@H]2C)c1 [Example 110, {3-[2,6-Dimethyl-4-(4-trifluoromethoxy-phenyl)-piperazine-1-sulfonyl]-5-methyl-phenyl}-acetic acid]
